Source: patent EP0531958A1, “6-Aminoquinolones, their synthesis and their use as antibacterial agents” (MEDIOLANUM FARMACEUTICI S.P.A., priority 1991, dated 1993)
Converted amounts (≈) assume the structure as drawn. Read-outs that look alike come from different tables or passages of the source.

Assays:
Assay type in all cases: cell-based
[1] = test system: Klebsiella pneumoniae ATCC 10031; assay: MIC test, agar dilution with Steers multiwell inoculator; settings: ATCC10031, TSA dishes, 24 h at 35°C, read-out: Minimum Inhibiting Concentration
Procedure: (§1) As to the antibacterial activity, there was determined the Least (Minimum) Inhibiting Concentration (MIC), by working according to the following operative conditions.
(§2) There were used suspensions of test germs (5 gram-positive and 15 gram-negative) having a known titre, kept freezed at -80°C and diluted, at the time of use, in peptonized water up to a concentration of 1-2.10⁷ cfu/ml.
(§3) A few mg of the products, according to the invention were weighed sufficient for preparing parent solutions in DMSO + NaOH (1N) containing 2560 µg/ml (64µg/ml/dish). From the thus prepared parent solutions there were prepared 12 serial dilutions (1:2) down to the concentration of 1.25 µg/ml.
(§4) 0.5 ml of the different dilutions of each product were distributed on dishes containing 19.5 ml of agarized medium (TSA), maintained in a fluid state at the temperature of 50°C. After slight stirring, the dishes were made to solidify and dry under hood (laminar flow).
(§5) The MIC tests (Least or "Minimum" Inhibiting Concentration) were performed by using a Steers multiwell inoculator having 36 wells, each containing 200 µl of bacterial suspension.
(§6) After inoculation, the dishes were placed into a thermostat and checked after 24 h of incubation at 35°C.
(§7) The MIC is defined as the lowermost product concentration (µg/ml) inhibiting the visible growth of the microorganisms.

[2] = test system: Escherichia coli ATCC 8739; assay: as above; settings: ATCC8739, TSA dishes, 24 h at 35°C, read-out: Minimum Inhibiting Concentration
Procedure: as §1, §2, §3, §4, §5, §6, §7

[3] = test system: Acinebacter calcoloaceticus OSMPV 1130; assay: as above; settings: TSA dishes, 24 h at 35°C, read-out: Minimum Inhibiting Concentration
Procedure: as §1, §2, §3, §4, §5, §6, §7

[4] = test system: Enterobacter cloacae OMNF 1174; assay: as above; settings: OMNF1174, TSA dishes, 24 h at 35°C, read-out: Minimum Inhibiting Concentration
Procedure: as §1, §2, §3, §4, §5, §6, §7

[5] = test system: Providencia stuardii CNUR 5; assay: as above; settings: CNUR5, TSA dishes, 24 h at 35°C, read-out: Minimum Inhibiting Concentration
Procedure: as §1, §2, §3, §4, §5, §6, §7

[6] = test system: Pseudomonas aeruginosa CNUR 4; assay: as above; settings: CNUR4, TSA dishes, 24 h at 35°C, read-out: Minimum Inhibiting Concentration
Procedure: as §1, §2, §3, §4, §5, §6, §7

[7] = test system: Enterobacter cloacae OMNF 1153; assay: as above; settings: OMNF1153, TSA dishes, 24 h at 35°C, read-out: Minimum Inhibiting Concentration
Procedure: as §1, §2, §3, §4, §5, §6, §7

[8] = test system: Pseudomonas aeruginosa ATCC 9027; assay: as above; settings: ATCC9027, TSA dishes, 24 h at 35°C, read-out: Minimum Inhibiting Concentration
Procedure: as §1, §2, §3, §4, §5, §6, §7

Escherichia coli ISF 432 = assay: as above; settings: ISF432, TSA dishes, 24 h at 35°C, read-out: Minimum Inhibiting Concentration
Procedure: as §1, §2, §3, §4, §5, §6, §7

[9] = test system: Streptococcus facealis LEP Br.; assay: as above; settings: TSA dishes, 24 h at 35°C, read-out: Minimum Inhibiting Concentration
Procedure: as §1, §2, §3, §4, §5, §6, §7

[10] = test system: Staphylococcus aureus ATCC 6538; assay: as above; settings: ATCC6538, TSA dishes, 24 h at 35°C, read-out: Minimum Inhibiting Concentration
Procedure: as §1, §2, §3, §4, §5, §6, §7

[11] = test system: Staphylococcus epidermidis CPHL A2; assay: as above; settings: CPHLA2, TSA dishes, 24 h at 35°C, read-out: Minimum Inhibiting Concentration
Procedure: as §1, §2, §3, §4, §5, §6, §7

Escherichia coli CNUR 8 = assay: as above; settings: CNUR8, TSA dishes, 24 h at 35°C, read-out: Minimum Inhibiting Concentration
Procedure: as §1, §2, §3, §4, §5, §6, §7

[12] = test system: Pseudomonas aeruginosa CNUR 2; assay: as above; settings: CNUR2, TSA dishes, 24 h at 35°C, read-out: Minimum Inhibiting Concentration
Procedure: as §1, §2, §3, §4, §5, §6, §7

Proteus vulgaris CNUR 6 = assay: as above; settings: CNUR6, TSA dishes, 24 h at 35°C, read-out: Minimum Inhibiting Concentration
Procedure: as §1, §2, §3, §4, §5, §6, §7

[13] = test system: Staphylococcus aureus MPR 5; assay: as above; settings: MPR5, TSA dishes, 24 h at 35°C, read-out: Minimum Inhibiting Concentration
Procedure: as §1, §2, §3, §4, §5, §6, §7

Escherichia coli 120 = assay: as above; settings: TSA dishes, 24 h at 35°C, read-out: Minimum Inhibiting Concentration
Procedure: as §1, §2, §3, §4, §5, §6, §7

[14] = test system: Staphylococcus epidermidis HCF Berset C.; assay: as above; settings: TSA dishes, 24 h at 35°C, read-out: Minimum Inhibiting Concentration
Procedure: as §1, §2, §3, §4, §5, §6, §7

Escherichia coli CNUR 1 = assay: as above; settings: CNUR1, TSA dishes, 24 h at 35°C, read-out: Minimum Inhibiting Concentration
Procedure: as §1, §2, §3, §4, §5, §6, §7

Shighella enteritidis = assay: as above; settings: TSA dishes, 24 h at 35°C, read-out: Minimum Inhibiting Concentration
Procedure: as §1, §2, §3, §4, §5, §6, §7

Gram + = assay: MIC test, average over the 5 gram-positive test germs; settings: 24 h
Procedure: as §1, §2, §3, §4, §5, §6, §7

Gram - = assay: MIC test, average over the 15 gram-negative test germs; settings: 24 h
Procedure: as §1, §2, §3, §4, §5, §6, §7

[15] = geometrical average of the MIC over the 5 Gram + strains, read-out: Geometrical Average
[16] = geometrical average of the MIC over the 15 Gram - strains, read-out: Geometrical Average
[17] = mean log of the MIC over the 15 Gram - strains, read-out: Log (converted)

| Structure (SMILES) | MIC [1] [µg/mL] | MIC [2] [µg/mL] | MIC [3] [µg/mL] | MIC [4] [µg/mL] | MIC [5] [µg/mL] | MIC [6] [µg/mL] | MIC [7] [µg/mL] | MIC [8] [µg/mL] | MIC (Escherichia coli ISF 432) [µg/mL] | MIC [9] [µg/mL] | MIC [10] [µg/mL] | MIC [11] [µg/mL] | MIC (Escherichia coli CNUR 8) [µg/mL] | MIC [12] [µg/mL] | MIC (Proteus vulgaris CNUR 6) [µg/mL] | MIC [13] [µg/mL] | MIC (Escherichia coli 120) [µg/mL] | MIC [14] [µg/mL] | MIC (Escherichia coli CNUR 1) [µg/mL] | MIC (Gram +; [15]) [µg/mL] | other results |
| --- | --- | --- | --- | --- | --- | --- | --- | --- | --- | --- | --- | --- | --- | --- | --- | --- | --- | --- | --- | --- | --- |
| CC1CN(c2cc3c(cc2N)c(=O)c(C(=O)O)cn3C2CC2)CCN1 (centres unmarked) [Compound 14] | 0.03 (≈ 0.0876 µM) | 0.03 (≈ 0.0876 µM) | 16 (≈ 46.7 µM) | 0.25 (≈ 0.73 µM) | 16 (≈ 46.7 µM) | 64 (≈ 187 µM) | 0.5 (≈ 1.46 µM) | 2 (≈ 5.84 µM) | 0.03 (≈ 0.0876 µM) | 32 (≈ 93.5 µM) | 16 (≈ 46.7 µM) | 4 (≈ 11.7 µM) | 0.12 (≈ 0.35 µM) | 4 (≈ 11.7 µM) | 32 (≈ 93.5 µM) | 16 (≈ 46.7 µM) | 0.06 (≈ 0.175 µM) | 4 (≈ 11.7 µM) | 0.12 (≈ 0.35 µM) | 10.6 | MIC (Shighella enteritidis): 0.25 µg/mL (≈ 0.73 µM); MIC (Gram +; read-out: Log (converted)): 10.5 µg/mL (≈ 30.8 µM); MIC (Gram -; [16]): 0.68 µg/mL (≈ 1.99 µM); MIC (Gram -; [17]): 0.679 µg/mL (≈ 1.98 µM) |
| Nc1cc2c(=O)c(C(=O)O)cn(C3CC3)c2cc1N1CCC(O)CC1 [Compound 16] | 0.03 (≈ 0.0874 µM) | 0.03 (≈ 0.0874 µM) | 2 (≈ 5.82 µM) | 2 (≈ 5.82 µM) | 8 (≈ 23.3 µM) | 128 (≈ 373 µM) | 2 (≈ 5.82 µM) | 8 (≈ 23.3 µM) | 0.03 (≈ 0.0874 µM) | 8 (≈ 23.3 µM) | 4 (≈ 11.6 µM) | 2 (≈ 5.82 µM) | 1 (≈ 2.91 µM) | 128 (≈ 373 µM) | 128 (≈ 373 µM) | 4 (≈ 11.6 µM) | 0.5 (≈ 1.46 µM) | 4 (≈ 11.6 µM) | 2 (≈ 5.82 µM) | 4 | MIC (Gram +; read-out: Log (converted)): 4 µg/mL (≈ 11.6 µM); MIC (Gram -; [16]): 2.08 µg/mL (≈ 6.05 µM); MIC (Gram -; [17]): 2.07 µg/mL (≈ 6.04 µM) |
